The record followed here is publication PMC11513923, “Discovery of ZLC491 as a Potent, Selective, and Orally Bioavailable CDK12/13 PROTAC Degrader” (Journal of Medicinal Chemistry, 2024).

The test system of experiment [1] is DDR genes. Put plainly: RT-qPCR of DDR genes in MDA-MB-231 cells. It is filed as cell-based, human. Conditions: MDA-MB-231, different doses, 12 h. On the procedure:
We next evaluated the effect of ZLC491 on the expression of DDR genes regulated by CDK12/13.
(A) Transcription level of DDR genes in MDA-MB-231 cells determined by RT-qPCR upon the treatment with vehicle or ZLC491 at different doses for 12 h, ROR1 was used as a negative control; (B) immunoblotting of DDR proteins in MDA-MB-231 cells after the treatment of ZLC491 at different doses for 48 h; (C) cell antiproliferative activity of ZLC491 in multiple TNBC cells as well as several noncancerous cells. Cells were treated with the compound for 5 days; (D,E) antiproliferative potency of cisplatin or olaparib alone or combined with ZLC491 at different doses in MDA-MB-231 cells for 5 days. Data are plotted using the percentage of absorbance relative to DMSO controls. (F) IC50 values and combination index (CI) in drug combination assay. In this model, CI scores estimate the interaction between the two drugs. If CI < 1, the drugs have a synergistic effect and if CI > 1, the drugs have an antagonistic effect. […]
RNA utilized for RT-qPCR was extracted as outlined below. […] Expression was normalized to GAPDH, and fold change in expression was calculated relative to the indicated conditions using ΔΔCt method.
On the technique in general: In qPCR the cycle at which signal appears reflects the starting amount.

Experiment [2] deals with CCNK. The experiment can be described thus: Immunoblotting of CCNK in MDA-MB-231 cells. It is filed as cell-based, human. The settings on record: MDA-MB-231, increasing concentrations, 15 h. On the procedure:
The global proteomic selectivity of ZLC491 was investigated by using the tandem mass tag (TMT) labeled mass-spectrometry. […] CDK13 was not detected in either degrader treatment groups or DMSO control groups, likely due to its insufficient cellular expression for mass spectrometry detection.
Generally, the tested cells were washed by ice-cold PBS buffer (Gibco) and lysed with an SDS lysis buffer (62.5 mM Tris, 2% w/v SDS, 10 glycerol, 50 mM DTT, 0.01% w/v bromophenol blue) on ice, after which the protein lysate samples were collected to 1.5 mL microcentrifuge tubes and treated with ultrasonic for 10 s, following with a 100 °C incubation for 10 min and a 4 °C centrifugation of 12000 rpm for 10 min. An equal amount of protein was loaded to 4–8% Bis-Tris gels and underwent an SDS-PAGE electrophoresis at 55V for 30 min and 95V for 90 min. Proteins on gels were then transferred to a polyvinylidene difluoride (PVDF) membrane (Bio-Rad) with a wet electro transfer system (Bio-Rad). The PVDF membrane was cut into bands and incubated in a blocking reagent (5% defatted milk powder dissolved in TBST) at room temperature for 1–2 h. Incubate membrane and primary antibody (at the appropriate dilution and diluent as recommended in the product webpage) at 4 °C for 12–14 h, followed with three times washes by TBST. […]
(In general: In western blotting, separated proteins are transferred to a membrane and probed.)

The target of experiment [3] is CDK12 (Homo sapiens, UniProt Q9NYV4). Put plainly: CDK12 degradation in MDA-MB-231 cells by immunoblotting. It is filed as cell-based. Further details: Immunoblotting of CDK12 and CDK13 in MDA-MB-231 cells treated with increasing concentrations of ZLC491 for 15 h; endogenous in cells; host or cells: MDA-MB-231. The gist of the method: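 MDA-MB-231 cells treated with ZLC491 at increasing concentrations for 15 h (screening at 0.3 μM; time course at 1 μM); SDS lysates immunoblotted, band intensities normalised to α-tubulin. DC50 taken from percent remaining protein versus concentration; representative of three independent experiments.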
CDK12, sequence (Q9NYV4 whole entry): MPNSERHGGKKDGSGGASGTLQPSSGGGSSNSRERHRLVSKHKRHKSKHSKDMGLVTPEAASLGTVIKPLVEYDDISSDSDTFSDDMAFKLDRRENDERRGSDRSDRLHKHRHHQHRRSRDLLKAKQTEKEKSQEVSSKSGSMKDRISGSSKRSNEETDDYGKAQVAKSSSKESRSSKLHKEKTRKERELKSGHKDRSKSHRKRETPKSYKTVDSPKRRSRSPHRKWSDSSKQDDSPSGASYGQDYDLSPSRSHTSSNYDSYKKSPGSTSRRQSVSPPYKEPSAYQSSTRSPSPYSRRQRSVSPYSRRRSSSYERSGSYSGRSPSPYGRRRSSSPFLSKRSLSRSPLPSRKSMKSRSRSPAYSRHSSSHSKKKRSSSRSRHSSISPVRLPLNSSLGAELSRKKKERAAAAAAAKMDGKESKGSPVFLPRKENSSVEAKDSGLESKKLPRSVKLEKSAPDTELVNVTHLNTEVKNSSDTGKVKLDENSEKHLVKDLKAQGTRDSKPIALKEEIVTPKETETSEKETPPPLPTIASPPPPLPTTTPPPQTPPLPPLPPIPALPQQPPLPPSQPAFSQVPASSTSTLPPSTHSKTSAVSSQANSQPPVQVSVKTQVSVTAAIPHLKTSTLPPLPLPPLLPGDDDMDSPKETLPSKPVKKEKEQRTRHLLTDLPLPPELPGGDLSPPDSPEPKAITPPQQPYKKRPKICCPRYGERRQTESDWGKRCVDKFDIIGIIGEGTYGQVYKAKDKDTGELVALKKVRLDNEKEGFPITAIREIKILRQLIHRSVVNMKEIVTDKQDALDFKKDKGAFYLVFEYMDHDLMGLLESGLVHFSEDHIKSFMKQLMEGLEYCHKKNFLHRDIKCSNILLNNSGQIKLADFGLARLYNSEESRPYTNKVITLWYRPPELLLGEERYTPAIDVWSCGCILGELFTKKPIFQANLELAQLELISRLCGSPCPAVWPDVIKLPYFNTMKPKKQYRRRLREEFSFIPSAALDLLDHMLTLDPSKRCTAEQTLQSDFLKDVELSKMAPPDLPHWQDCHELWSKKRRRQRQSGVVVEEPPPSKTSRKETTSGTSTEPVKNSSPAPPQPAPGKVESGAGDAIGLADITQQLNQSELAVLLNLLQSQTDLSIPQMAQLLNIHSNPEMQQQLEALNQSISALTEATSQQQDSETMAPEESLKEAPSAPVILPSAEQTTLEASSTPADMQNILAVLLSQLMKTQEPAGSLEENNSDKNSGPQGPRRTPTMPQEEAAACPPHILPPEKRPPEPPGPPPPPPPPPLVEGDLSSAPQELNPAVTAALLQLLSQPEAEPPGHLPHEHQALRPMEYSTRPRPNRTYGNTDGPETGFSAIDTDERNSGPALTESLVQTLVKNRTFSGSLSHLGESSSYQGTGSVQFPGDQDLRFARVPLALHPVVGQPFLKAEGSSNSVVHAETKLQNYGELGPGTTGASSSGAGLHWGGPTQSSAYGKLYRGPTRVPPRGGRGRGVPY
CDK12, sequence (O75909 whole entry partner): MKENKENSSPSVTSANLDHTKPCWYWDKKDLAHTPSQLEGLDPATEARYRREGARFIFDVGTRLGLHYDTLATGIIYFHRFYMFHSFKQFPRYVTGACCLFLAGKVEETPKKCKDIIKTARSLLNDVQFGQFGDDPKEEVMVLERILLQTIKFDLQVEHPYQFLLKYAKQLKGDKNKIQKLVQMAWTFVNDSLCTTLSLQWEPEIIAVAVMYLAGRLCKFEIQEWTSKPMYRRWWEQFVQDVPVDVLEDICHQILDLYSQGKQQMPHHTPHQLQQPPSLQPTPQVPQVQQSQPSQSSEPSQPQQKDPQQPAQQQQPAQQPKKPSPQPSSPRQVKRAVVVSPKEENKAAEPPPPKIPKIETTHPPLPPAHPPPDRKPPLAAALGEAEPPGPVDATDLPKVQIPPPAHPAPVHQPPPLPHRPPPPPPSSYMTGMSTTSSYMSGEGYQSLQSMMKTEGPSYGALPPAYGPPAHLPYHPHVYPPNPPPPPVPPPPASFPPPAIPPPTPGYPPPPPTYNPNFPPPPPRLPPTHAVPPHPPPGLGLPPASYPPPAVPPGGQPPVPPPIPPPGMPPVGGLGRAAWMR

Regarding `N#Cc1ccc(N[C@H]2CC[C@H](N(C(=O)NCc3ccccc3)c3ccc(N4CCN(C5CCN(c6cc7c(cc6F)C(=O)N(C6CCC(=O)NC6=O)C7=O)CC5)CC4)cc3)CC2)nc1` (some centres unmarked) [ZLC491, 3-Benzyl-1-((1r,4r)-4-((5-cyanopyridin-2-yl)amino)cyclohexyl)-1-(4-(4-(1-(2-(2,6-dioxopiperidin-3-yl)-6-fluoro-1,3-dioxoisoindolin-5-yl)piperidin-4-yl)piperazin-1-yl)phenyl)urea], the “transcription of DDR genes (ATM, ATR, BRCA1, BRCA2, FANCD2, SMARCC)” value in experiment [1] is recorded as “concentration-dependently suppressed”. In addition, the “CCNK degradation by Western blotting” value in experiment [2] is “dose-dependently degraded”. In addition, the “Protein Degradation (%DMSO control, 0.3 μM) CDK12” value in experiment [3] (MDA-MB-231 cells, 0.3 μM, 15 h, immunoblotting, normalized against α-tubulin) amounted to 85%. Moreover, the DC50 (usually the concentration giving 50% degradation) in experiment [3] (MDA-MB-231 cells, 15 h) stood at 32 nM. For the same molecule, in experiment [3] (supplementary CSV, 0.3 μM), the Degradation rates of CDK12 at 0.3 μM was 85%.
